In ChEMBL document CHEMBL1201862, “PubChem BioAssay data set” (2004):
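Results reflect a 48-hour exposure of cells in 96-well plates to compound at five concentrations. At the GI50, growth is halved.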 Active and inactive are the calls of the source. Rule as the data show it: active = GI50 up to about 1.1 µM and inactive = higher.

Columns and labels:
Test in all cases: NCI tumour cell line growth inhibition, 48 h
DLD-1 = system: DLD-1
DMS-114 = system: DMS-114
DMS-273 = system: DMS-273
HOP-18 = system: HOP-18
KM-20L2 = system: KM-20L2
M19-MEL = system: M19-MEL
SNB-78 = system: SNB-78
XF498 = system: XF498
RXF 631 = system: RXF 631

Row | SMILES | GI50 (DLD-1) | GI50 (DMS-114) | GI50 (DMS-273) | GI50 (HOP-18) | GI50 (KM-20L2) | GI50 (M19-MEL) | GI50 (SNB-78) | GI50 (XF498) | GI50 (RXF 631)
1 | CNC(=O)OCc1nc(SC(C)C)n(C)c1COC(=O)NC | > 100 µM (inactive) | > 83.6 µM (inactive) | 99.8 µM (inactive) | > 100 µM (inactive) | > 100 µM (inactive) | > 100 µM (inactive) | 65.6 µM (inactive) | – | –
2 | COc1ccc(-c2cc(O)c3cc4c(cc3n2)OCO4)c(OC)c1 | 36.8 µM (inactive) | – | 33.7 µM (inactive) | 56.4 µM (inactive) | – | 43 µM (inactive) | 54.7 µM (inactive) | 30.3 µM (inactive) | –
3 | CC1(O)CC2C(CC1SCCO)C2(C)C (configuration not stated) | > 100 µM (inactive) | > 100 µM (inactive) | > 100 µM (inactive) | > 100 µM (inactive) | – | > 100 µM (inactive) | > 100 µM (inactive) | > 100 µM (inactive) | –
5 | CC1NOC(=O)C1/N=N/c1ccccc1Br (configuration not stated) | 31.6 µM (inactive) | 18.9 µM (inactive) | 31.6 µM (inactive) | 26.5 µM (inactive) | 38.3 µM (inactive) | 19 µM (inactive) | 26.5 µM (inactive) | 20.3 µM (inactive) | 31.3 µM (inactive)
6 | N/N=C1/C(=O)N(c2ccc(Cl)cc2)C(=O)C(=O)C1c1nc2ccccc2s1 (configuration not stated) | > 100 µM (inactive) | > 100 µM (inactive) | > 100 µM (inactive) | > 100 µM (inactive) | > 100 µM (inactive) | > 100 µM (inactive) | > 100 µM (inactive) | > 95.1 µM (inactive) | –
7 | CN/N=C(/CC(=O)c1sc(-n2nc(-c3ccccc3)cc2-c2ccccc2)nc1C)C(=O)Nc1ccc(Cl)c(Cl)c1 | 37.6 µM (inactive) | – | – | – | – | 42.5 µM (inactive) | 14 µM (inactive) | – | –
8 | IC[P+]1(c2ccccc2)CCCC1 | 52.2 µM (inactive) | 9.25 µM (inactive) | 18.7 µM (inactive) | 58.7 µM (inactive) | 26.2 µM (inactive) | 21.3 µM (inactive) | > 100 µM (inactive) | < 0.01 µM (active) | –
9 | CC(=O)C1(O)Cc2c(O)c3c(c(O)c2C(OC2CC(N)C(O)C(C)O2)C1)C(=O)c1ccccc1C3=O (configuration not stated) | 0.023 µM (active) | – | 0.01 µM (active) | 0.01 µM (active) | < 0.0152 µM (active) | – | 0.0457 µM (active) | < 0.0125 µM (active) | –
10 | Cn1cc(C2(C)CC(C)(C)c3c2n(C)c2ccccc32)c2ccccc21 (configuration not stated) | > 100 µM (inactive) | 59.6 µM (inactive) | > 100 µM (inactive) | – | > 100 µM (inactive) | > 100 µM (inactive) | > 100 µM (inactive) | 81.1 µM (inactive) | –
11 | COC(=O)CCc1cccnc1/C=N/O | > 100 µM (inactive) | > 100 µM (inactive) | > 100 µM (inactive) | > 100 µM (inactive) | > 100 µM (inactive) | > 100 µM (inactive) | > 100 µM (inactive) | – | > 100 µM (inactive)
12 | COc1ccccc1NC(=O)C1=C(C)NC(C)=C(C(=O)Nc2ccccc2OC)C1c1ccccc1F | > 100 µM (inactive) | 47.8 µM (inactive) | 70.3 µM (inactive) | > 100 µM (inactive) | 92.9 µM (inactive) | – | 51.5 µM (inactive) | – | > 100 µM (inactive)
13 | O=C(CN1CCCCC1)N1CCc2c([nH]c3ccccc23)C1c1cccnc1 (configuration not stated) | > 100 µM (inactive) | > 100 µM (inactive) | > 100 µM (inactive) | > 100 µM (inactive) | > 100 µM (inactive) | > 100 µM (inactive) | > 100 µM (inactive) | > 100 µM (inactive) | > 100 µM (inactive)
14 | Cn1nc(-c2ccccc2)c(C(=O)/C=C/c2ccc(Cl)cc2)c(N2CCCCC2)c1=O | 2.53 µM (inactive) | 1.92 µM (inactive) | 2.31 µM (inactive) | 2.16 µM (inactive) | 2.43 µM (inactive) | 2.25 µM (inactive) | – | 1.64 µM (inactive) | 3.4 µM (inactive)
15 | CC(=O)NNc1nc(C)c(C(=O)NNC(=O)C(=O)Nc2ccc(C)c(C)c2)s1 | 93.8 µM (inactive) | 32.2 µM (inactive) | > 100 µM (inactive) | > 100 µM (inactive) | > 100 µM (inactive) | 68.1 µM (inactive) | > 100 µM (inactive) | – | –
16 | CC(=O)NC1C(OCc2ccccc2)OC(COC(=O)CCCCCCCCCCNC(=O)CCNc2ccc([N+](=O)[O-])c3[nH]c4ccc(O)cc4c(=O)c23)C(O)C1OC(C)C(=O)N[C@H](C(=O)N[C@H](CCC(=O)O)C(N)=O)C(C)C (some centres not stated) | 33.5 µM (inactive) | 36.2 µM (inactive) | 40.3 µM (inactive) | > 100 µM (inactive) | 25.4 µM (inactive) | 79.1 µM (inactive) | 45.7 µM (inactive) | – | 90.6 µM (inactive)
17 | CC(C)=CC1CCc2ccccc2N1S(=O)(=O)c1ccc(C)cc1 (configuration not stated) | 2.57 µM (inactive) | 1.06 µM (active) | 0.697 µM (active) | 4.19 µM (inactive) | 1.34 µM (inactive) | 1.44 µM (inactive) | 1.44 µM (inactive) | 3.63 µM (inactive) | 2.96 µM (inactive)
18 | Cc1c(C(=O)/C=C/c2ccccc2Cl)[n+]([O-])c2ccccc2[n+]1[O-] | 6.53 µM (inactive) | 6.97 µM (inactive) | 14.3 µM (inactive) | 15 µM (inactive) | 16.9 µM (inactive) | 14.7 µM (inactive) | 12.4 µM (inactive) | – | 15.2 µM (inactive)
19 | Cc1ccc(/C=C2\CCCC\C2=N\O)cc1 | 41.9 µM (inactive) | – | 56.8 µM (inactive) | 59.6 µM (inactive) | 75.9 µM (inactive) | 87.7 µM (inactive) | 30.3 µM (inactive) | 31.3 µM (inactive) | –
20 | c1ccc(OCCSCCCCCCCCCCSCCOc2ccccc2)cc1 | – | > 100 µM (inactive) | – | > 100 µM (inactive) | > 100 µM (inactive) | > 100 µM (inactive) | > 100 µM (inactive) | – | > 100 µM (inactive)
21 | O=C(Nc1ccccc1)O/N=C1/CCCC/C1=C\c1ccccc1 | 14.6 µM (inactive) | 12 µM (inactive) | 15.9 µM (inactive) | 13.7 µM (inactive) | 19.6 µM (inactive) | 18.1 µM (inactive) | 12.4 µM (inactive) | – | 18.3 µM (inactive)
22 | CC12CCC(C)(c3cc(O)c(O)cc31)c1cc(O)c(O)cc12 | 17.5 µM (inactive) | 14.8 µM (inactive) | 17.3 µM (inactive) | – | 19 µM (inactive) | 13.7 µM (inactive) | 17.7 µM (inactive) | 17.1 µM (inactive) | 20.2 µM (inactive)
23 | C=C1C(=O)OC2C1CC[C@H](C)C1(O)C(O)CC(=O)[C@@]21C (some centres not stated) | 18.7 µM (inactive) | 16.7 µM (inactive) | 22.3 µM (inactive) | – | – | 12.3 µM (inactive) | 26.7 µM (inactive) | – | –
24 | COc1cc2c(c(OC)c1OC)-c1ccc(SC)c(=O)cc1[C@@H](NC(=O)c1ccc(F)cc1)CC2 | 0.0423 µM (active) | – | < 0.01 µM (active) | – | 0.0233 µM (active) | 0.0409 µM (active) | 0.055 µM (active) | 0.049 µM (active) | –
